From patent US10314812B2, “Suspension compositions of physiologically active phenolic compounds and methods of making and using the same” (Humanetics Corporation, priority 2013, dated 2019)

Legend:
[1] = Particle size analysis by laser diffraction (LA-950, Horiba); assay type: physicochemical; settings: for particle size distribution (PSD) after milling: 25% (w/v) genistein in olive oil, nanomilled 60 minutes in YTZ media, initial measurement; for D(0.50) particle size: material as provided by the commercial supplier (DSM), before milling
Excerpt: In the context of the present description, the particle size distribution of a given material is provided in volume diameter as measured in accordance with USP 429 using a laser diffraction particle size analyzer operating in the Mie Scattering Theory diffraction mode and equipped with a suspension dispersion sample chamber (e.g., as available from Horiba Instruments, Irvine, Calif., USA). For purposes of the present description, volume diameter is given as a particle size distribution defined by one or more of D (0.10), D (0.50) and D (0.90). When referred to herein, the term D (0.10) indicates the volume frequency distribution of particles for which 10% of the sample is below the referenced size, the term D (0.50) indicates the volume frequency distribution of particles for which 50% of the sample is below the referenced size, and the term D (0.90) indicates the volume frequency distribution of particles for which 90% of the sample is below the referenced size. In addition to measurement of the particle size distribution via laser diffraction, the results from such particle size analysis and/or the morphology of the particles may be confirmed using known electron microscopy techniques.
Genivida™, a food grade genistein, and Bonistein®, a pharmaceutical grade genistein, were obtained from a commercial supplier (DSM, http://www.dsm.com/corporate/home.html) and subjected to particle size analysis. […] FIG. 1 and FIG. 2 illustrate the PSD of the Genivida™ and Bonistein® materials as supplied from DSM.
The Genivida™ and Bonistein® materials were dispersed within the olive oil to provide a suspension composition that included 25% (w/v) genistein. Several samples ≈200 ml per sample) of the 25% w/v genistein/olive oil suspension were divided and milled using a, MiniCer® nanomill from Netzsch. The samples containing Bonistein® were milled for 60 minutes in a 0.3 mm YTZ media (yttria stabilized zirconium oxide (ZrO2) beads). Samples containing Genivida™ were milled for 60 minutes in a 0.5 mm YTZ media.
A selection of the samples containing Genivida™ were subjected to a pre-milling process (referred to or labeled as “pre-grind” samples). The pre-milling process also utilized a MiniCer® nanomill from Netzsch with YTZ milling media. However, the milling media utilized in the pre-milling step was 1.25 mm YTZ media. Pre-milling was carried out for 20 minutes, with the purpose of reducing the D(0.50) particle size of the Genivida™ to below 10 μm. After pre-milling, those samples subjected to the pre-milling procedure were milled in a MiniCer® nanomill for 60 minutes in a 0.3 mm YTZ media.
After the milling steps, particle size analysis was completed for each sample. […]

[2] = Particle size stability of genistein/olive oil nanosuspensions stored at ambient temperature (laser diffraction and TEM); assay type: physicochemical; settings: suspended in olive oil, glass vials
Excerpt: After the milling steps, particle size analysis was completed for each sample. […] An amount of each nanosuspension composition was aliquoted into 3.7 cc glass vials, which were then stored at ambient temperature.
At approximately two months, samples were taken from each vial and subjected to laser diffraction particle size analysis and TEM analysis.
At the 3-month time point, a sample of each nanosuspension was taken from each vial and again subjected to laser diffraction particle size analysis and TEM analysis. Even after three months, the genistein material suspended in the olive oil remained nano-sized, with the D(0.50) at 3 months in all cases being <300 nm (see, FIGS. 3A-3C).
For each of the samples at each time point, particle size analysis conducted by laser diffraction was carried out using a LA-950 particle size analyzer from Horiba Scientific, Edison, N.J.

Row | Structure (SMILES) | particle size distribution (PSD) after milling [1] | D(0.50) particle size [1] [μm] | D(0.50) at 3 months ([2]; 3 months, all samples) [nm] | particle size distribution (PSD) after storage ([2]; approximately two months, laser diffraction and TEM)
1 | O=c1c(-c2ccc(O)cc2)coc2cc(O)cc(O)c12 [Bonistein®] | nanoparticulate PSD | 10.7 |  | 
2 | O=c1c(-c2ccc(O)cc2)coc2cc(O)cc(O)c12 [Genivida™] | nanoparticulate PSD | 29.5 |  | 
3 | O=c1c(-c2ccc(O)cc2)coc2cc(O)cc(O)c12 [genistein, 5,7-dihydroxy-3-(4-hydroxyphenyl)-chromen-4-one] |  |  | < 300 | maintained a nanoparticulate PSD
